From patent publication EP4803630A1, “CELL FOR IDENTIFYING MAIT CELL LIGAND, AND METHOD FOR SCREENING MAIT CELL LIGAND USING SAID CELL” (The University of Osaka, priority 2023, dated 2025)
Entries after “also recorded” stand apart in the source; their conditions may differ.

Columns and labels:
[1] = test system: TCR of MAIT cells; experiment: co-expression reporter cell assay: NFAT-GFP expression on activation of MAIT TCR; type: cell-based; details: 37°C, 6-20 hr, GFP by flow cytometry
Source text: (§1) MAIT TCR genes and MR1 molecules genes were synthesized from mouse (Tiloy et al, J Exp Med. 1999) or human (4L4T, Protein Data Bank) and inserted into retroviral vectors (pMX-IRES-ratCD2, pMX-IRES-humanCD8), respectively. These plasmids were co-introduced into Phoenix packaging cells by using PEI MAX (Polysciences). […] MAIT TCR and MR1 co-expressing T cells (hereinafter also referred to as "co-expression reporter cells") were selected using antimouse TCRβ (H57-597), anti-human CD3 (HIT3a), and anti-human/mouse/rat MR1 (26.5) antibodies.
(§2) The validation experiment evaluated GFP expression and MR1 molecule surface expression 6 hr after stimulation of co-expression reporter cells with vehicle control, 5-OP-RU, and Ac-6-FP. GFP was evaluated by flow cytometry. MR1 molecule surface expression was represented by the MFI value of the stimulated cells.
(§3) In the above-mentioned screening, to stimulate "co-expression reporter cells," tissue extract samples and synthetic compounds were dissolved in water and added to each well of a 96-well plate in the absence of methylglyoxal. Some water-insoluble samples were dissolved in ethanol or chloroform/methanol (2:1, vol/vol) and coated onto the plates. "Co-expression reporter cells" (1-3×10^4 cells/100 µL/well) were cultured at 37°C for 6-20 hr, and the expression of GFP and MR1 molecules was analyzed by flow cytometry.

[2] = test system: MR1 molecule; experiment: co-expression reporter cell assay: MR1 surface expression by flow cytometry; type: cell-based; details: co-expression reporter cells, 37°C, 6-20 hr, MFI by flow cytometry
Protocol: These plasmids were co-introduced into Phoenix packaging cells by using PEI MAX (Polysciences).
as §2, §3

[3] = test system: Human peripheral blood mononuclear cells (PBMCs); experiment: sc-TCR-RNA-seq analysis of stimulated PBMCs; type: cell-based; details: PBMCs stimulated for several days; for gene expression signature (induced genes): in contrast to 5-OP-RU; for TCR expressed by surviving MAIT cells: TRAV1-2-TRAJ33/12/20:TRBV6-4/6-1/20-1
Protocol: Human peripheral blood mononuclear cells (PBMCs) were stimulated with CA7S and CA3S for several days, and then sc-TCR-RNA-seq analysis was performed.

[4] = test system: MAIT cells in MR1-5-OP-RU tetramer-enriched thymocytes; experiment: flow cytometry of thymic MAIT cells after administration to Sult2a-deficient mice; type: in vivo, mouse; details: 2-4 week old Sult2a-deficient mice administered with CA7S versus not administered
Protocol: The expression of MAIT cells in MR1-5-OP-RU tetramer-enriched thymocytes was analyzed by flow cytometry in 2-4 week old wild-type mice, Sult2a-deficient mice administered with CA7S, and Sult2a-deficient mice not administered with CA7S.
The data were obtained from experiments using three or more mice per group. *P<0.05, **P<0.01, P***<0.005, one-way ANOVA and Tukey's multiple comparison test were used.

[5] = test system: MAIT TCRs derived from human (h); experiment: reporter cell assay with human-derived MAIT TCR, mouse or human MR1; type: cell-based; details: regardless of the species of the MR1 molecule
Source text: as §1
as §3, with “cytometry. The same procedure was performed in the subsequent Examples. • (2) To determine the chemical structure of the activation molecule contained in fraction #84, this fraction was further purified by hydrophilic interaction chromatography (HILIC), and a single fraction (named #84-45) was recovered. […]” for “cytometry.”

[6] = test system: MAIT TCRs derived from mouse (m); experiment: reporter cell assay with mouse-derived MAIT TCR, mouse or human MR1; type: cell-based; details: regardless of the species of the MR1 molecule
Source text: as §1
as §3, with “cytometry. The same procedure was performed in the subsequent Examples. • (2) To determine the chemical structure of the activation molecule contained in fraction #84, this fraction was further purified by hydrophilic interaction chromatography (HILIC), and a single fraction (named #84-45) was recovered. […]” for “cytometry.”

| Compound | activation of the TCR of MAIT cells (GFP expression) [1] | expression of MR1 molecules on the T cell surface [2] | other results |
| --- | --- | --- | --- |
| CC(=O)C=Nc1c(NC[C@H](O)[C@H](O)[C@H](O)CO)[nH]c(=O)[nH]c1=O [Analog 5-OP-RU, 5-(2-Oxopropylidene-amino)-6-D-ribitylaminouracil, reference compound] | dose-dependently enhanced GFP expression |  |  |
| C[C@H](CCC(=O)O)[C@H]1CC[C@H]2[C@@H]3[C@H](O)C[C@@H]4C[C@H](OS(=O)(=O)O)CC[C@]4(C)[C@H]3C[C@H](O)[C@]12C [CA3S, cholic acid 3-sulfate] | activated MAIT reporter cells in the presence of MR1 molecules | similarly increased the expression of the MR1 molecule on the T cell surface | gene expression signature (induced genes) [3]: induced genes involved in homeostasis maintenance, such as IL7R, KLF2, and TCF7; TCR expressed by surviving MAIT cells [3]: expressed a representative MAIT TCR |
| C[C@H](CCC(=O)O)[C@H]1CC[C@H]2[C@@H]3[C@H](OS(=O)(=O)O)C[C@@H]4C[C@H](O)CC[C@]4(C)[C@H]3C[C@H](O)[C@]12C [CA7S, cholic acid 7-sulfate] | activated reporter cells expressing MAIT TCR; also recorded: weak agonist | similarly increased the expression of the MR1 molecule on the T cell surface | MAIT cells in thymocytes [4]: restored MAIT cells; activation of MAIT TCR derived from human (h) [5]: activated; activation of MAIT TCR derived from mouse (m) [6]: activated; gene expression signature (induced genes) [3]: induced genes involved in homeostasis maintenance, such as IL7R, KLF2, and TCF7; TCR expressed by surviving MAIT cells [3]: expressed a representative MAIT TCR |
| C[C@H](CCC(=O)O)[C@H]1CC[C@H]2[C@@H]3[C@H](O)C[C@@H]4C[C@H](O)CC[C@]4(C)[C@H]3C[C@H](OS(=O)(=O)O)[C@]12C [CA12S] | did not | similarly increased the expression of the MR1 molecule on the T cell surface |  |
| C[C@H](CCC(=O)O)[C@H]1CC[C@H]2[C@@H]3[C@H](O)C[C@@H]4C[C@H](O)CC[C@]4(C)[C@H]3C[C@H](O)[C@]12C [CA, cholic acid, reference compound] | did not activate | did not activate |  |
| C[C@H](CCC(=O)O)[C@H]1CC[C@H]2[C@@H]3CC[C@@H]4C[C@H](OS(=O)(=O)O)CC[C@]4(C)[C@H]3C[C@H](O)[C@]12C [DCA3S, deoxy-CA3S, reference compound] | did not show activity in reporter cells |  |  |
| C[C@H](CCC(=O)O)[C@H]1CC[C@H]2[C@@H]3CC[C@@H]4C[C@H](OS(=O)(=O)O)CC[C@]4(C)[C@H]3CC[C@]12C [LCA3S, litho-CA3S, reference compound] | did not show activity in reporter cells |  |  |
| C[C@H](CCC(=O)NCCS(=O)(=O)O)[C@H]1CC[C@H]2[C@@H]3[C@H](O)C[C@@H]4C[C@H](OS(=O)(=O)O)CC[C@]4(C)[C@H]3C[C@H](O)[C@]12C [TCA3S] | showed no activity | showed no activity |  |
| C[C@H](CCC(=O)NCCS(=O)(=O)O)[C@H]1CC[C@H]2[C@@H]3[C@H](OS(=O)(=O)O)C[C@@H]4C[C@H](O)CC[C@]4(C)[C@H]3C[C@H](O)[C@]12C [TCA7S] | showed no activity | showed no activity |  |
| C[C@H](CCC(=O)NCCS(=O)(=O)O)[C@H]1CC[C@H]2[C@@H]3CC[C@@H]4C[C@H](OS(=O)(=O)O)CC[C@]4(C)[C@H]3CC[C@]12C [TLCA3S, taurolitho-CA3S, reference compound] | did not show activity in reporter cells |  |  |
